Assay results as given in paper PMC7900953, “Location of a single histidine within peptide carriers increases mRNA delivery” (The Journal of Gene Medicine, 2020).

Columns and labels:
MDA‐MB‐231 cells [1] = test: Cell viability assay (trypan blue exclusion); type: cell-based; conditions: polymer alone (4 µg), 5 h in Opti-MEM, then DMEM/10% FBS 19 h
Method: MDA‐MB‐231 cells were seeded at 5.0 × 10^4 per well in a 24‐tissue culture plate and incubated overnight in DMEM supplemented with 10% fetal bovine serum (FBS) serum. The media was then changed to Opti‐MEM and the cells were treated with either the polymer (4 μg) or the polyplex (4 μg of HK; 1 μg of mRNA) for 5 hours. After the media was changed to DMEM/10% FBS for 19 hours, the cell viability was measured using the trypan blue cell exclusion assay (Trypan Blue solution, 0.4%; Sigma‐Aldrich, St Louis, MO, USA). ^41
After the medium was changed to Opti-MEM, either the polymer (4 µg) or the polyplex (4 µg HK; 1 µg mRNA) was added to the cells for 5 h. The media was then changed to DMEM/10% FBS for 19 h and the cell viability was determined using the trypan cell exclusion assay.

MDA‐MB‐231 cells [2] = test: In vitro uptake of HK polyplexes by fluorescence microscopy; type: cell-based; conditions: HK:mRNA 4:1; for Aggregates of polyplexes seen by fluorescence microscopy: 4 hours after transfection
Method: With the mRNA labeled with Cy5, HK polyplexes at a ratio of 4:1 (HK:mRNA) were prepared as described for in vitro transfection. The labeled polyplexes were incubated with MDA‐MB‐231 cells for four hours in Opti‐MEM. After the cells were washed with phosphate‐buffered saline (PBS) (Quality Biologicals, Gaithersburg, MD, USA), they were incubated for 30 minutes with LysoTracker Green DND‐26 (Cell Signaling Technology, Inc., Danvers, MA, USA), a dye that stains acidic endosomes and lysosomes. Then after the cells were washed twice with PBS and once with 1% Triton‐X, they were fixed (4% formalin/1% glutaraldehyde) and the nuclei were stained with chromatin dye Hoechst 33342 (Invitrogen, Carlsbad, CA, USA). Images were obtained with a Nikon TE2000‐S (Nikon, Tokyo, Japan) with a mercury lamp light source usng the filter sets: Ex‐357(20)/Em‐460(60) (Hoechst); Ex‐480(30)/Em‐535(45) (Lysotracker green DND‐26); Ex‐620(50)/Em‐690(50) (Cy5‐labeled‐mRNA). Red/green ratios were measured on 20 intracellular acidic vesicles (one per cell) using ImageJ, version 1.52. ^42
FIGURE 5 Fluorescence images of different mRNA polyplexes within acidic vesicles of MDA‐MB‐231 cells. (A) Four hours after transfection with labeled mRNA by H3K(+H)4b (upper) or H3K4b (lower) carriers, intracellular acidic vesicles were stained with Lysotracker green. The cells were then fixed, and the nuclei were stained with Hoesch 33342 dye. Images were obtained with a Nikon TE2000‐S using a mercury lamp light source and the filter sets delineated in the Materials and methods (green, acidic vesicles; red, cynanine 5‐labeled mRNA; blue, nuclei labeled with Hoescht dye). […] Arrows indicate the irregularly shaped mRNA aggregates frequently observed with H3K4b carrier. (B) Analysis of the amount of HK (H3K4b or H3K(+H)4b) polyplexes within acidic endosomal vesicles of MDA‐MB‐231 cells. Images of HK polyplexes labeled with cyanine5 (red emission) were imported into endosomal vesicles (green emission). The red/green ratios were measured on 20 intracellular acidic vesicles using ImageJ. […]

Acid–base titration = type: physicochemical; conditions: 5 mg/ml, from pH 3.0, 5 μl aliquots of 0.05 M NaOH to about pH 9.0
Method: After the polymer solution [H2K4b, H3K4b, H3K(+H)4b and H4K4b] was adjusted to pH 3.0 (5 mg/ml; initial volume 1 ml), aliquots (5 μl) of NaOH (0.05 M) were stepwise added with the pH measured (FiveEasy™ meter; InLab Solids Pro‐ISM pH electrode; Mettler Toledo, Columbus, OH, USA). Titration was stopped at approximately pH 9.0.
FIGURE 2 Titration of different HK peptide solutions. Solutions of polymers (5 mg/ml) [H2K4b, H3K4b, H3K(+H)4b and H4K4b] were adjusted to pH 3 (initial volume 1 ml) and then 5‐μl aliquots of 0.05 N NaOH were stepwise added and the pH was measured

Substance: R = KHHHKHHHKHHHHKHHHK [H3K(+H)4b, four‐branched analogue of H3K4b with one extra histidine in the second ‐HHHK‐ motif]
- % Viability (MDA‐MB‐231 cells [1]): 96.3%
- Aggregates of polyplexes seen by fluorescence microscopy (MDA‐MB‐231 cells [2]): not observed
- Localization of polyplexes within acidic endosomal vesicles (MDA‐MB‐231 cells [2]; 4 hours in Opti‐MEM, red/green ratios on 20 vesicles, p < 0.001): localized within the acidic endosomal vesicles significantly more than H3K4b polyplexes
- Buffering profile from pH titration curves (Acid–base titration): minimal differences in their buffering profile

Substance: R = KHHHKHHHKHHHKHHHK [H3K4b, four‐branched histidine‐lysine peptide with four ‐HHHK‐ motifs in each branch]
- % Viability (MDA‐MB‐231 cells [1]): 95.6%
- Aggregates of polyplexes seen by fluorescence microscopy (MDA‐MB‐231 cells [2]): likely extracellular aggregates
- Buffering profile from pH titration curves (Acid–base titration): minimal differences in their buffering profile
